Measured values published in patent publication US11584756B2, “Heterocyclic compounds as BET inhibitors” (NUVATION BIO INC., priority 2019, dated 2023).
pIC50: −log10 of the molar value.

Legend:
BRD4-1 = BRD4-1 (Homo sapiens (Human), UniProt O60885); assay: Bromodomain and Extraterminal Domain (BET) binding assay, BRD4-1; conditions: histone H4 peptide (1-21) K5/8/12/16Ac-biotin ligand; 20 nM protein, 20 nM ligand
Description: (§1) The bromodomain binding assays were performed by Reaction Biology Corp., Malvern, Pa., USA (www.reactionbiology.com). The BET binding assays were conducted in 384 well microplates in assay buffer (50 mM HEPES-HCl, pH 7.5, 100 mM NaCl, 1 mg/ml BSA, 0.05% CHAPS, and 0.5% DMSO) with compounds added as DMSO stocks at a single concentration or with 10-point dose response titrations. BET protein or assay buffer were delivered to the appropriate wells of the microplate. Test compound was then delivered by acoustic technology via a Labcyte Echo550 liquid handler. The microplate was centrifuged for 5 min and pre-incubated for 30 min at RT with gentle shaking. The ligand (histone H4 peptide (1-21) K5/8/12/16Ac-biotin) was delivered and the microplate was again centrifuged for 5 min and allowed to incubate for 30 min at RT with gentle shaking. Donor beads were then added in the absence of light and the microplate was centrifuged and gently shaken. After 5 min, acceptor beads were added in the absence of light and the microplate was centrifuged and gently shaken in the dark for 60 min. The microplate was read using a Perkin Elmer EnSpire Alpha plate reader (λ Ex/λ Em=680/520-620 nm). Percent inhibition was calculated relative to positive and negative controls on a per plate basis. For titration experiments, IC50 values were determined by fitting the percent inhibition versus compound concentration.

BRD4-2 = BRD4-2 (Homo sapiens (Human), UniProt O60885); assay: Bromodomain and Extraterminal Domain (BET) binding assay, BRD4-2; conditions: histone H4 peptide (1-21) K5/8/12/16Ac-biotin ligand; 130 nM protein, 70 nM ligand
Description: as §1

[1] = tested on: MV-4-11 human acute myeloid leukemia cell line; assay: Cell viability assay in MV-4-11 cells (Cell Titer-Glo); format: cell-based; conditions: MV4-11, 72 hrs incubation
Description: The effects of test compounds were studied in a cell viability assay in the MV-4-11 human acute myeloid leukemia cell line. The cells were harvested during the logarithmic growth period and counted. Cells were seeded at a count of 15000 cells per well/100 μl. After seeding, cells were incubated at 37° C. 5% CO2 for 1 hr. Cells were treated with test compounds at 8 concentrations within a desired concentration range (e.g. 5 nM-10 μM) for generation of dose response curves by preparing serial dilutions of the test compound in DMSO which were further diluted with culture medium and then added to each well. The plate was further incubated for another 72 hrs in a humidified incubator at 37° C. and 5% CO2. The assay was terminated by addition of Cell Titer-Glo reagent (Promega, Madison, Wis.) at ¼ the volume of total medium per well. Contents were mixed, the plate was incubated for 10 min at room temperature and luminescence was measured. Cell viability data were plotted using GraphPad Prism (GraphPad Software, Inc., San Diego, Calif.). In addition, a nonlinear regression model with a sigmoidal dose response and variable slope within GraphPad Prism was used to calculate the IC50 value of individual test compounds.

[2] = tested on: IEC-6 rat intestinal epithelial cell line; assay: Cell viability assay in IEC-6 cells (resazurin), potential toxicity to non-cancerous cells; format: cell-based; conditions: Protocol B: 4000 cells per well, 48 hrs incubation with test compound, read-out: Protocol B IC50 (μM), cell viability in IEC-6 cells
Description: The effects of test compounds were also studied in the IEC-6 rat intestinal epithelial cell line to assess potential toxicity to non-cancerous cells. The cells were harvested during the logarithmic growth period and counted. In Protocol A, cells were seeded at a count of 3000 cells per well/100 μl in a 96-well plate. After seeding, cells were incubated at 37° C. 5% CO2 for 24 hr. Cells were treated with test compounds at 8 concentrations within a desired concentration range (e.g. 5 nM-10 μM) for generation of dose response curves by preparing serial dilutions of the test compound in DMSO which were further diluted with culture medium and then added to each well. The plate was further incubated for another 96 hrs in humidified incubator at 37° C. and 5% CO2. The assay was terminated by addition of resazurin (#R7017, Sigma). The plate was incubated for 4 hr at 37° C. 5% CO2 and fluorescence was measured using excitation and emission wavelengths of 535 and 590 nm, respectively. Cell viability data were plotted using GraphPad Prism (GraphPad Software, Inc., San Diego, Calif.). In addition, a nonlinear regression model with a sigmoidal dose response and variable slope within GraphPad Prism was used to calculate the IC50 value of individual test compounds. Protocol B was the same as Protocol A except that cells were seeded at a count of 4000 cells per well/100 μl in a 96-well plate, and the incubation with test compound was for 48 hrs instead of 96 hrs.

| Compound | pIC50 (BRD4-1) | pIC50 (BRD4-2) | IC50 [1] [µM] | IC50 [2] [µM] |
| --- | --- | --- | --- | --- |
| Cc1nnc(-c2cc3c(-c4cc(C(C)(C)O)ccc4Oc4c(C)cc(F)cc4C)cn(C)c(=O)c3s2)o1 [Compound 13, 4-(2-(4-fluoro-2,6-dimethylphenoxy)-5-(2-hydroxypropan-2-yl)phenyl)-6-methyl-2-(5-methyl-1,3,4-oxadiazol-2-yl)thieno[2,3-c]pyridin-7(6H)-one] | 5.31 | 8.05 | 0.54 | 2.5 |
| Cn1cc(-c2cc(C(C)(C)O)ccc2Oc2ccc(F)cc2F)c2cc(C(=O)N3CCCC(F)(F)C3)sc2c1=O [Compound 23, 4-(2-(2,4-difluorophenoxy)-5-(2-hydroxypropan-2-yl)phenyl)-2-(3,3-difluoropiperidine-1-carbonyl)-6-methylthieno[2,3-c]pyridin-7(6H)-one] | 5.95 | 7.74 | 0.768 | 1.62 |
| Cn1cc(-c2cc(C(C)(C)O)ccc2Oc2ccc(F)cc2F)c2cc(C(=O)NC3CC3)sc2c1=O [Compound 145, N-cyclopropyl-4-(2-(2,4-difluorophenoxy)-5-(2-hydroxypropan-2-yl)phenyl)-6-methyl-7-oxo-6,7-dihydrothieno[2,3-c]pyridine-2-carboxamide] | 6.22 | 8.15 | 0.245 | 0.691 |
| CCNC(=O)c1cc2c(=O)n(C)cc(-c3cc(C(C)(C)O)ccc3Oc3c(C)cc(F)cc3C)c2s1 [Compound 146, N-ethyl-7-(2-(4-fluoro-2,6-dimethylphenoxy)-5-(2-hydroxypropan-2-yl)phenyl)-5-methyl-4-oxo-4,5-dihydrothieno[3,2-c]pyridine-2-carboxamide] | 5.53 | 8.70 | 0.084 | 0.729 |
| CCNC(=O)c1cc2c(-c3cc(NS(=O)(=O)CC)ccc3Oc3c(C)cccc3C)cn(C)c(=O)c2s1 [Compound 147, 4-(2-(2,6-dimethylphenoxy)-5-(ethylsulfonamido)phenyl)-N-ethyl-6-methyl-7-oxo-6,7-dihydrothieno[2,3-c]pyridine-2-carboxamide] | 6.52 | 8.74 | 0.047 | 1.77 |
